Test results taken from ChEMBL document CHEMBL3991601, “The target landscape of clinical kinase drugs” (Science, 2017).
Activity calls are given as the source filed them. Cut-off read from the data, not from the text of the source, for most assays here: actives have a measured Kd and inactives only a lower limit.

Columns and labels:
[1] = target: AP2-associated protein kinase 1 (Homo sapiens, UniProt Q2M2I8)
[2] = target: T1, Acyl-CoA dehydrogenase family member 11 (Homo sapiens, UniProt Q709F0)
T1 sequence (Q709F0 whole entry): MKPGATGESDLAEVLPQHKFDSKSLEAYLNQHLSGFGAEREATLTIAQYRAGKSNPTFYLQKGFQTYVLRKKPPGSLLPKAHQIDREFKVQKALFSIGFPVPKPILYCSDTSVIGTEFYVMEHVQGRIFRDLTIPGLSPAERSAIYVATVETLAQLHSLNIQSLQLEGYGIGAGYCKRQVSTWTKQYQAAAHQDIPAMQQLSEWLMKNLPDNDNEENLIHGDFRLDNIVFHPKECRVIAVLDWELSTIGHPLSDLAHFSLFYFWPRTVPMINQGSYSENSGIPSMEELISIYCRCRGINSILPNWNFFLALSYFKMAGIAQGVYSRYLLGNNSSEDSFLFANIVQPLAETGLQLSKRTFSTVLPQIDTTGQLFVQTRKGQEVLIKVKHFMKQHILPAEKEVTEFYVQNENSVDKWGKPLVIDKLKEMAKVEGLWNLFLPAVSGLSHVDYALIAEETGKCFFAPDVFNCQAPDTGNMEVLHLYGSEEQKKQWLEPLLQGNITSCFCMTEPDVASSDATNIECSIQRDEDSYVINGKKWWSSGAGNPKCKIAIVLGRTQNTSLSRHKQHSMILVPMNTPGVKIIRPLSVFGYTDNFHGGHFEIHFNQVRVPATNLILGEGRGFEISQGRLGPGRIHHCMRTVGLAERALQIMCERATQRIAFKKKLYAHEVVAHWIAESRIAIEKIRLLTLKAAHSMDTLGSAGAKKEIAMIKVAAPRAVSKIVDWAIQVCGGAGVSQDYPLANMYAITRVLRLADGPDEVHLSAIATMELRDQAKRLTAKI

Aurora kinase B = Aurora kinase B (Homo sapiens, UniProt Q96GD4)
Ephrin type-A receptor 4 = Ephrin type-A receptor 4 (Homo sapiens, UniProt P54764)
[3] = target: T2, Phenylalanine--tRNA ligase beta subunit (Homo sapiens, UniProt Q9NSD9)
T2 sequence (Q9NSD9 whole entry): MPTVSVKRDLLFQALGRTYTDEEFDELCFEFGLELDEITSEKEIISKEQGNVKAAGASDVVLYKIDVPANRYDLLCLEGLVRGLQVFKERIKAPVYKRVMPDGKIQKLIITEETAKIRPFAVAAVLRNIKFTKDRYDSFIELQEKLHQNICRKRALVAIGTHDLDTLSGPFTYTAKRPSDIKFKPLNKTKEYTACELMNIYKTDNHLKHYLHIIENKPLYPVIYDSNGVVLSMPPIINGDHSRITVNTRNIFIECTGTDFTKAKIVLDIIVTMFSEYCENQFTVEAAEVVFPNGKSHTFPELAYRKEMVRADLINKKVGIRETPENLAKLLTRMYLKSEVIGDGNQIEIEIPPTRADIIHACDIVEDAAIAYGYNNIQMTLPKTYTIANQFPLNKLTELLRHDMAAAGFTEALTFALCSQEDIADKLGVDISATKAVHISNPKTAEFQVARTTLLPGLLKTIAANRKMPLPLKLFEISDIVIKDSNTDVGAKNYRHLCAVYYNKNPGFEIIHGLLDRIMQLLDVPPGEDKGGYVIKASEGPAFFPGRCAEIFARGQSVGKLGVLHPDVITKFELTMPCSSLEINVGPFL

[4] = target: T3, Interleukin-1 receptor-associated kinase 3 (Homo sapiens, UniProt Q9Y616)
T3 sequence (Q9Y616 whole entry): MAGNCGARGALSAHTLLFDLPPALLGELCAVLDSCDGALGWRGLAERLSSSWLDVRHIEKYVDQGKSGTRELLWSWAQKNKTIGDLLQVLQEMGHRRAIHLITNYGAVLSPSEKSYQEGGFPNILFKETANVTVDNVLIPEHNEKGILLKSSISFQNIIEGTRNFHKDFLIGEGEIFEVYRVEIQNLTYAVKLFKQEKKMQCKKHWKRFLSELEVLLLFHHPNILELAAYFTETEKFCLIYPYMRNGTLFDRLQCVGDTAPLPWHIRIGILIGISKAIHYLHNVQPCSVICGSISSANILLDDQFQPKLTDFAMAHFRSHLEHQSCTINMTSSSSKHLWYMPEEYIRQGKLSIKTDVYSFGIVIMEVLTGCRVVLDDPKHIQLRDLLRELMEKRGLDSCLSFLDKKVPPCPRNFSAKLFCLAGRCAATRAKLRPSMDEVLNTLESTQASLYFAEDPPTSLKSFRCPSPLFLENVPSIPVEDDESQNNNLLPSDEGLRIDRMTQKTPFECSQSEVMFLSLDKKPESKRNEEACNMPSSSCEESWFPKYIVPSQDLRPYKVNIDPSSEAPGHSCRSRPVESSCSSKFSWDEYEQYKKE

[5] = target: Ribosomal protein S6 kinase alpha-4 (Homo sapiens, UniProt O75676)
[6] = target: Ribosomal protein S6 kinase alpha-5 (Homo sapiens, UniProt O75582)
Note: in the data inactive means no Kd found up to 30 µM.

Ephrin type-A receptor 4, sequence (P54764 whole entry): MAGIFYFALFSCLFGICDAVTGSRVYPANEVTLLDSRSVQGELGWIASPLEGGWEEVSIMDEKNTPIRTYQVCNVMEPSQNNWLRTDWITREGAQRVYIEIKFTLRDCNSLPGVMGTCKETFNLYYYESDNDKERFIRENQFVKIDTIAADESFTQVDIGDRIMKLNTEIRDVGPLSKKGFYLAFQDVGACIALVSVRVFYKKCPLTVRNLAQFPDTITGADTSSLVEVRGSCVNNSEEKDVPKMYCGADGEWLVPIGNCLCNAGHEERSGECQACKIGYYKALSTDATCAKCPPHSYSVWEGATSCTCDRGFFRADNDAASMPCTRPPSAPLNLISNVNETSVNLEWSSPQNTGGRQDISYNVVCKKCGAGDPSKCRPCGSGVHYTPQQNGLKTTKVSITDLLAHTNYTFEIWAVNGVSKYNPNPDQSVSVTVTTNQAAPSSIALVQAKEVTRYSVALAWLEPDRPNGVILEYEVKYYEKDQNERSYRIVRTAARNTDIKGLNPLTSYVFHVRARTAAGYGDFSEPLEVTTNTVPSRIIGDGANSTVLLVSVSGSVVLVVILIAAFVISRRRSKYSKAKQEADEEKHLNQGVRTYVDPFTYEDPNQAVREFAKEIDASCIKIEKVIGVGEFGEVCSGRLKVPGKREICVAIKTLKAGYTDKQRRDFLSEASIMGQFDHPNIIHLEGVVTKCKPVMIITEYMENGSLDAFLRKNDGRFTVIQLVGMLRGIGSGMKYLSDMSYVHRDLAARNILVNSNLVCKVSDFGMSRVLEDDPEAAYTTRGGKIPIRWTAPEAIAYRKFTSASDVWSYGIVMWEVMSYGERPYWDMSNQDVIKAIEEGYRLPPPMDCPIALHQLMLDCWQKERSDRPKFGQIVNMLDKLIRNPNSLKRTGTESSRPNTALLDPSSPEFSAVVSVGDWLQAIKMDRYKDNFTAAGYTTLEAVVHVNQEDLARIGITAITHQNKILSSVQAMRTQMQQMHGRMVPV
AP2-associated protein kinase 1, sequence (Q2M2I8 whole entry): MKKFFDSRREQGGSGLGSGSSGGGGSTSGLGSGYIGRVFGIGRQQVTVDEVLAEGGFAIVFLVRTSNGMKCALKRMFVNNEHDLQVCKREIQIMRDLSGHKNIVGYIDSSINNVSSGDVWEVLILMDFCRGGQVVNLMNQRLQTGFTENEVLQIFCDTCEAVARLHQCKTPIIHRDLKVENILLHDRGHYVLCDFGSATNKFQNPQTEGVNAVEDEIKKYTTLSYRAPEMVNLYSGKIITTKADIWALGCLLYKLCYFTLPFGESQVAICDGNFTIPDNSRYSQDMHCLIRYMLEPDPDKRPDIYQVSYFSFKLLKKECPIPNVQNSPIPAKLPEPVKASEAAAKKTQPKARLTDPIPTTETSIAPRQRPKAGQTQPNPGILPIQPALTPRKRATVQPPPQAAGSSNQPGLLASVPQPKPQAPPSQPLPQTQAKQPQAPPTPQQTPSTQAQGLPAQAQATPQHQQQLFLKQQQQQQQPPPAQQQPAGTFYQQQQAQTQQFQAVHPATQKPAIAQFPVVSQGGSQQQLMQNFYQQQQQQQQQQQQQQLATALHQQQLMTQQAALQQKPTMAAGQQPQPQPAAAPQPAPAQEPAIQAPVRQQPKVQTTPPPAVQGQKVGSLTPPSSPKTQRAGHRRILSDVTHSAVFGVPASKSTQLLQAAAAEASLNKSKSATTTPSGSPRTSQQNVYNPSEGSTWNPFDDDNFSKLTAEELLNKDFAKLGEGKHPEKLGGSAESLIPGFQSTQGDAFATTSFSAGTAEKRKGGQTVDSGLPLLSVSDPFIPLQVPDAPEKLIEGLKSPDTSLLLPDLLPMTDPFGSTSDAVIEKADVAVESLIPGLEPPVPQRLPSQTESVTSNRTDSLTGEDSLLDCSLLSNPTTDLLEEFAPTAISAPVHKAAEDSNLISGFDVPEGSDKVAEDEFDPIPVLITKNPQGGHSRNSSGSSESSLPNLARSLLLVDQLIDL
Ribosomal protein S6 kinase alpha-5, sequence (O75582 whole entry): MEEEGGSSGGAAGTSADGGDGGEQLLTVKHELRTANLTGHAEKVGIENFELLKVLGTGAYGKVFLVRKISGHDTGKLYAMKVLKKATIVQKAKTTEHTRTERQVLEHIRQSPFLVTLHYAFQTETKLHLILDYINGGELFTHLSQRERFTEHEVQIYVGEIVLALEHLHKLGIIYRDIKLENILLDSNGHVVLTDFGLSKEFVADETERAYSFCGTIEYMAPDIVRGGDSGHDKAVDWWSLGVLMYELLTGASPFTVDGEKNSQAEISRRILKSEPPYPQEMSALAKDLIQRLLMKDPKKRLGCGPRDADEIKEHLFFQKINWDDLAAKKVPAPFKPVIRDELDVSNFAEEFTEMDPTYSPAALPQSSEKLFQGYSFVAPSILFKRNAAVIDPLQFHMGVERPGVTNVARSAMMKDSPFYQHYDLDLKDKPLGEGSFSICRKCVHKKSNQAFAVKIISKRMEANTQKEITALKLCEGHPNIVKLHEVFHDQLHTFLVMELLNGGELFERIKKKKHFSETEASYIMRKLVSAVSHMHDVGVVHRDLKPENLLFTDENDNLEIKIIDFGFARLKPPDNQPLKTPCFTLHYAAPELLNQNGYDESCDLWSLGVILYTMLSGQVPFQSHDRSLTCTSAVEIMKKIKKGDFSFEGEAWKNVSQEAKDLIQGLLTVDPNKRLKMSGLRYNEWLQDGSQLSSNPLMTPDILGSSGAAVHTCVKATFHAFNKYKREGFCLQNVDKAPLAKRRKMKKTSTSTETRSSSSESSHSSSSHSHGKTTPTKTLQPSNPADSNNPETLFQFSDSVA
Aurora kinase B, sequence (Q96GD4 whole entry): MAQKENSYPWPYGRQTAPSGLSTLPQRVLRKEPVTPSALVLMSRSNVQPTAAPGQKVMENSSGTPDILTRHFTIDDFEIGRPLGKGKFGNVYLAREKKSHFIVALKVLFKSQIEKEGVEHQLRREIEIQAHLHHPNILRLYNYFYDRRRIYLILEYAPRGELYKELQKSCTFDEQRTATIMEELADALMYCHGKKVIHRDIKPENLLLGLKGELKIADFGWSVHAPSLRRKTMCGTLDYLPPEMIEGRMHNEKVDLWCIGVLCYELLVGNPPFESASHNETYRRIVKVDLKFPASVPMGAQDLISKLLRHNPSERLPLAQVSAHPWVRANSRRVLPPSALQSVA
Ribosomal protein S6 kinase alpha-4, sequence (O75676 whole entry): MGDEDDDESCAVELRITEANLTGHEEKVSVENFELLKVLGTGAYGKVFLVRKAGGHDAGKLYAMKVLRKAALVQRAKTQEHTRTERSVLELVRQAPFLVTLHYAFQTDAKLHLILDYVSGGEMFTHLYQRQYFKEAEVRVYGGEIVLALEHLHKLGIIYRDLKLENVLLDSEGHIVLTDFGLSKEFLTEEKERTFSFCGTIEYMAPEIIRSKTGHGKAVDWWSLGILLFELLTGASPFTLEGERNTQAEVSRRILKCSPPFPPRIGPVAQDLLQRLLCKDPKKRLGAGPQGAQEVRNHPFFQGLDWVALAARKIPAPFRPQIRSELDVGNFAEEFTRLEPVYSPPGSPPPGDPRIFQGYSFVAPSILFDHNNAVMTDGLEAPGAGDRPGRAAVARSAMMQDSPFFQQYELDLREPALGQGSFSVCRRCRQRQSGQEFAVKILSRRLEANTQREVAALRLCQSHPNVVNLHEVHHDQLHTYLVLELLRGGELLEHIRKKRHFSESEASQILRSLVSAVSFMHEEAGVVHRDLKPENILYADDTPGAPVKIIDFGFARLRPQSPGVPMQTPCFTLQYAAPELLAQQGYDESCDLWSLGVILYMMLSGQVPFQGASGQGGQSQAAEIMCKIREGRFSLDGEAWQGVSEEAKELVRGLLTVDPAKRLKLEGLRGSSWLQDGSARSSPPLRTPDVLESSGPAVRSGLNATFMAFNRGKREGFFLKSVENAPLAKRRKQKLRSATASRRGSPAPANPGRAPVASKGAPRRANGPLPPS

| Kd [1] | Kd [2] | Kd (Aurora kinase B) | Kd (Ephrin type-A receptor 4) | Kd [3] | Kd [4] | Kd [5] | Kd [6] | SMILES |
| --- | --- | --- | --- | --- | --- | --- | --- | --- |
| > 30 µM (inactive) | > 30 µM (inactive) | 1.56 µM (active) | > 30 µM (inactive) | > 30 µM (inactive) | > 30 µM (inactive) | > 30 µM (inactive) | > 30 µM (inactive) | Cc1cc(Nc2nc(N[C@@H](C)c3ncc(F)cn3)ncc2Cl)n[nH]1 [AZD-1480] |
| 1.41 µM (active) | > 30 µM (inactive) | > 30 µM (inactive) | > 30 µM (inactive) | > 30 µM (inactive) | > 30 µM (inactive) | > 30 µM (inactive) | > 30 µM (inactive) | COc1cccc(Nc2ncnn3ccc(CN4CC[C@@H](N)[C@H](O)C4)c23)c1 [BMS-690514] |
| 2.44 µM (active) | > 30 µM (inactive) | > 30 µM (inactive) | > 30 µM (inactive) | > 30 µM (inactive) | > 30 µM (inactive) | > 30 µM (inactive) | > 30 µM (inactive) | Cc1cc(C(=O)Nc2cc(Oc3ccc4nc(NC(=O)C5CC5)cn4n3)ccc2C)n(C)n1 [TAK-593] |
| > 30 µM (inactive) | > 30 µM (inactive) | > 30 µM (inactive) | > 30 µM (inactive) | > 30 µM (inactive) | > 30 µM (inactive) | > 30 µM (inactive) | > 30 µM (inactive) | Cn1c(=O)c(F)c(Nc2ccc(I)cc2F)c2c(=O)n(C[C@@H](O)CO)cnc21 [TAK-733] |
| > 30 µM (inactive) | > 30 µM (inactive) | > 30 µM (inactive) | > 30 µM (inactive) | > 30 µM (inactive) | > 30 µM (inactive) | > 30 µM (inactive) | > 30 µM (inactive) | COc1cccc2cc(-c3nc([C@H]4CC[C@H](C(=O)O)CC4)n4ncnc(N)c34)[nH]c12 [OSI-027] |

More lines, now with the values behind:

| SMILES | Kd [1] | Kd [2] | Kd (Aurora kinase B) | Kd (Ephrin type-A receptor 4) | Kd [3] | Kd [4] | Kd [5] | Kd [6] |
| --- | --- | --- | --- | --- | --- | --- | --- | --- |
| Cn1cc(-c2[nH]c3cc(NC(=O)[C@H](N)C4CCCCC4)cc4c3c2C=NNC4=O)cn1 | 0.002 µM (active) | > 30 µM (inactive) | 0.12 µM (active) | > 30 µM (inactive) | > 30 µM (inactive) | > 30 µM (inactive) | 1.05 µM (active) | > 30 µM (inactive) |
| COc1cc2ncnc(Nc3ccc(O)cc3)c2cc1OC [WHI-P131] | 1.07 µM (active) | > 30 µM (inactive) | > 30 µM (inactive) | > 30 µM (inactive) | > 30 µM (inactive) | > 30 µM (inactive) | > 30 µM (inactive) | > 30 µM (inactive) |
| NC[C@@](O)(c1ccc(Cl)cc1)c1ccc(-c2cn[nH]c2)cc1 [AT-13148] | > 30 µM (inactive) | > 30 µM (inactive) | > 30 µM (inactive) | > 30 µM (inactive) | > 30 µM (inactive) | > 30 µM (inactive) | > 30 µM (inactive) | > 30 µM (inactive) |
| COc1cc(F)c(F)c(Nc2ccc(I)cc2F)c1NS(=O)(=O)C1(C[C@H](O)CO)CC1 [REFAMETINIB] | > 30 µM (inactive) | > 30 µM (inactive) | > 30 µM (inactive) | > 30 µM (inactive) | > 30 µM (inactive) | > 30 µM (inactive) | > 30 µM (inactive) | > 30 µM (inactive) |
| CC(C)CC(=O)Nc1[nH]nc2c1CN(C(=O)C1CCN(C)CC1)C2(C)C [PHA-793887] | > 30 µM (inactive) | > 30 µM (inactive) | > 30 µM (inactive) | > 30 µM (inactive) | 0.003 µM | > 30 µM (inactive) | > 30 µM (inactive) | > 30 µM (inactive) |
| CC1(COc2ccc3c(c2)ncn3-c2ccc3cccc(N4CCC(N)CC4)c3n2)COC1 [CRENOLANIB] | > 30 µM (inactive) | > 30 µM (inactive) | > 30 µM (inactive) | > 30 µM (inactive) | > 30 µM (inactive) | 1.51 µM (active) | > 30 µM (inactive) | > 30 µM (inactive) |
| O[C@H]1CC[C@H](Nc2ncc3nc(Nc4c(F)cc(F)cc4F)n([C@H]4CCOC4)c3n2)CC1 [TANZISERTIB] | > 30 µM (inactive) | > 30 µM (inactive) | > 30 µM (inactive) | > 30 µM (inactive) | > 30 µM (inactive) | > 30 µM (inactive) | > 30 µM (inactive) | > 30 µM (inactive) |
| CNC(=O)c1ccc(Nc2ncc(C(F)(F)F)c(NCc3nccnc3N(C)S(C)(=O)=O)n2)cc1 [DEFACTINIB] | > 30 µM (inactive) | > 30 µM (inactive) | 1.46 µM (active) | > 30 µM (inactive) | > 30 µM (inactive) | > 30 µM (inactive) | > 30 µM (inactive) | > 30 µM (inactive) |
| Cc1cc(-c2cc(OC(=O)c3ccccc3)ccc2Cl)cc2nnc(Nc3ccc(OCCN4CCCC4)cc3)nc12 [TG100-801] | > 30 µM (inactive) | > 30 µM (inactive) | > 30 µM (inactive) | 1.93 µM | > 30 µM (inactive) | > 30 µM (inactive) | > 30 µM (inactive) | > 30 µM (inactive) |
| FC(F)(F)c1ccc(CNc2ccc(Cc3c[nH]c4ncc(Cl)cc34)cn2)cn1 [PEXIDARTINIB] | 13.7 µM (active) | > 30 µM (inactive) | > 30 µM (inactive) | > 30 µM (inactive) | > 30 µM (inactive) | > 30 µM (inactive) | > 30 µM (inactive) | > 30 µM (inactive) |
| N#CCNC(=O)c1ccc(-c2ccnc(Nc3ccc(N4CCOCC4)cc3)n2)cc1 [MOMELOTINIB] | 0.004 µM (active) | > 30 µM (inactive) | > 30 µM (inactive) | > 30 µM (inactive) | > 30 µM (inactive) | > 30 µM (inactive) | > 30 µM (inactive) | > 30 µM (inactive) |
| C=CC(=O)Nc1cccc(Nc2nc(Nc3ccc(N4CCN(C(C)=O)CC4)cc3OC)ncc2C(F)(F)F)c1 [ROCILETINIB] | > 30 µM (inactive) | > 30 µM (inactive) | > 30 µM (inactive) | > 30 µM (inactive) | > 30 µM (inactive) | > 30 µM (inactive) | > 30 µM (inactive) | > 30 µM (inactive) |
| O=S(=O)(c1cccc2c(O)nccc12)N1CCCNCC1 [HYDROXYFASUDIL] | > 30 µM (inactive) | > 30 µM (inactive) | > 30 µM (inactive) | > 30 µM (inactive) | > 30 µM (inactive) | > 30 µM (inactive) | > 30 µM (inactive) | > 30 µM (inactive) |
| COCCN1CCN(Cc2ccc(-c3n[nH]c4c3C(=O)c3c(NC(=O)NN5CCOCC5)cccc3-4)cc2)CC1 [RGB-286638] | 0.022 µM (active) | > 30 µM (inactive) | > 30 µM (inactive) | > 30 µM (inactive) | > 30 µM (inactive) | > 30 µM (inactive) | > 30 µM (inactive) | > 30 µM (inactive) |
